Laboratory results published in patent US12723064B2, “Treating Alzheimer's disease” (Yeda Research and Development Co. Ltd., priority 2020, dated 2026).
“Also recorded” adds a separate entry of the source.

Tests used:
[1] = system: Tau; conditions: previously reported (19); cited from earlier work
[2] = target: T1, APP-Tau binding (Homo sapiens, UniProt P10636); test: ELISA: peptide inhibition of Tau and APP protein binding; conditions: peptides or combinations 1 μg/ml, four hours at RT before APP protein; anti Aß detection
T1 construct: purchased Bio-Legend US
Method: An ELISA plate (96 wells) was coated with Tau protein 1 μg/ml in bicarbonate PH=8.2 50 μl/well, then incubated overnight at 4° C. Peptides and their combinations were also incubated overnight at 4° C. in PBS 1 μg/ml. The next day, the plate was washed 3× with PBS and blocked with 3% BSA/PBS for two hours at RT. The plate was washed again 3× with PBS and peptides or their combinations 50 ul/well were added for four hours at RT. The plate was washed again 3× with PBS and APP protein, 1 μg/ml 50 μl/well was added for ON incubation at 4° C. The next day, the plate was washed 3× with PBS, following which anti Aß 1-16 (1 mg/ml) was added (1:500 dilution 50 μl/well) for two hours at RT. The plate was washed again and anti-mouse HRP antibodies (1:10,000 dilution in PBS 1% BSA) added at 50 μl/well. Color reaction was stopped with 50 μl/well of 1M H2S04 and read at 0.D. 450.

[3] = system: mice; test: Y maze behavior test of APP1 peptide flexibly linked to Tau peptide; assay type: in vivo; conditions: treated mice vs control treated mice (PBS), FIG. 6
Excerpt: The Y-maze test (45) consists of two trials, first “training” and second “retention”, separated by an inter-trial interval (ITI). Each arm of the Y-maze was equipped with a guillotine door that could be operated manually. The three identical arms were randomly designated as follows: the “start” (steam) arm, in which the mouse began to explore the maze (always open); the “Novel” arm, which was closed off during the first trial, but open in the second one; and the “other” arm (always open). The first (training) trial lasted five minutes and allowed the mouse to explore only two arms (“start” and “other”) of the maze. Access to the third (“Novel”) arm was blocked. The second trial (retention) was conducted after a two minute ITL. During this three minute trial, all three arms were accessible. The mouse was returned to the same starting arm and was allowed to explore all three arms. Retention was scored as a preferential index to the “Novel” arm, that was calculated as follows: time spent in the “Novel” arm minus the time spent in the old arm divided by the sum of time spent in both arms (46).
An additional experiment was carried out testing the effects of the APP1 peptide flexibly linked to the TAU peptide on behavior as tested in the Y maze.

[4] = system: hippocampus; test: Number of elements and % of area in the hippocampus (Table 3); assay type: in vivo, mice
Method: Mice were sacrificed (trans-cardially punctured, and saline-perfused). The right brain hemisphere of each mouse was stored at −70° C. to quantify Aβ levels. The left hemispheres were fixed (4% paraformaldehyde) and prepared for paraffin blocks which were cut into six micron sagittal sections and used for histological staining and examination. Sagittal brain sections were stained with Congo red dye (Sigma-Aldrich) and visualized by fluorescence microscopy. Quantification of amyloid depositions was done for the whole hippocampal area in a blinded fashion using Imaging Research software from the National Institutes of Health in an unbiased stereological approach.

T1 sequence (P10636 1-441 isoform P10636-8): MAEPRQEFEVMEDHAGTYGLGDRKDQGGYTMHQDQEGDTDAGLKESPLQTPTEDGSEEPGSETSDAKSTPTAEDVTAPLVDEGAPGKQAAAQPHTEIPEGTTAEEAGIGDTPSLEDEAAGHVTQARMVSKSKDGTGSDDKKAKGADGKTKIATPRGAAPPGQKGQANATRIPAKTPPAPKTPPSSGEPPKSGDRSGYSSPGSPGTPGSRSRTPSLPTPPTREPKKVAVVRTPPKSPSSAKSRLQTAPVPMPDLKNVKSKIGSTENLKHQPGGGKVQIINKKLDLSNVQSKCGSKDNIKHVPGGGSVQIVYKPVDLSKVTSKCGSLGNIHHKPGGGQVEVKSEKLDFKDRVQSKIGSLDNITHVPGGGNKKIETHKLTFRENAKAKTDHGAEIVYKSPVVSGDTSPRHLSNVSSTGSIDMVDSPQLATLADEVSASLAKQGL

| inhibition of APP protein binding to Tau coated plate [2] | Sequence | binding to Tau [1] | Y maze preferential index (cognitive ability) [3] | % of area [4] | Number of elements [4] |
| --- | --- | --- | --- | --- | --- |
| not inhibited | ATVIVITLVMLKKKQYTS [APP2, reference compound] | bind Tau |  |  |  |
| not inhibited | GLGDRKDQGGYTMHQD [Tau1, synthetic peptide from N-terminal end of Tau protein (residues 19-34)] |  |  |  |  |
|  | HFQKAKERLEAKHRERMSQVMREGGGGSGGGGSGGGGSGLGDRKDQGGYTMHQD (example of a peptide which comprises an APP derived peptide linked by a flexible peptide linker to a TAU derived peptide) |  | improve | 1.9% | 112 |

| Sequence | inhibition of APP protein binding to Tau coated plate [2] | binding to Tau [1] | Y maze preferential index (cognitive ability) [3] | % of area [4] | Number of elements [4] |
| --- | --- | --- | --- | --- | --- |
| HFQKAKERLEAKHRERMSQVMRE [APP1, synthetic peptide from APP protein, APP1 (390-412)] | significant but partial inhibition; also recorded: significant, but partial inhibition |  |  |  |  |
